Laboratory results taken from patent US8163909B2, “Substituted hydroxyethyl amine compounds as beta-secretase modulators and methods of use” (Amgen Inc., priority 2007, dated 2012).
Where two headings read alike, the source gives them in different places.

What was measured:
[1] = Microsomal stability assay, rat liver microsomes;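 also: rat liver microsomes (0.25 mg/mL) with about 1 µM compound plus 1 mM NADPH, pH 7.4, 37 °C for 30 min, parent left measured by LC-MS/MS against 0 min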
CYP3A4 (CYP3A) = CYP3A4 (CYP3A) (Homo sapiens, UniProt P08684); experiment: in vitro; details: microsomes, pH 7.4;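 also: inhibition of CYP3A-mediated 1-hydroxymidazolam formation after 10 min incubation with NADPH, quantified by HPLC MS relative to metabolite produced without test compound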
CYP3A4 (CYP3A), sequence (P08684 2-503): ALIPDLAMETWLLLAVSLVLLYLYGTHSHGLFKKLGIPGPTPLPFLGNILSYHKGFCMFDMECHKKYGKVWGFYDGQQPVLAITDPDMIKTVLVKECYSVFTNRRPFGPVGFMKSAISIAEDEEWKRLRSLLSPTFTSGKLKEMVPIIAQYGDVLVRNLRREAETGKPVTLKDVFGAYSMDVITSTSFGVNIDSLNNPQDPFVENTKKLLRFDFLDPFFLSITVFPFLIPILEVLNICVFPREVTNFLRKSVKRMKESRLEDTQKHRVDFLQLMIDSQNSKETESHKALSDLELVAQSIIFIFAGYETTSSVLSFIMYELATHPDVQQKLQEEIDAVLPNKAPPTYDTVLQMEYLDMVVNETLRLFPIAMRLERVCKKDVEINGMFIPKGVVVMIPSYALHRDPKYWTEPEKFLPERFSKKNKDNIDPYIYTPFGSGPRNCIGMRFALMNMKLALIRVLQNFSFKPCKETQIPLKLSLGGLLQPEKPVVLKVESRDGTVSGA

[2] = Microsomal stability assay, human liver microsomes;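 also: pooled human liver microsomes at 0.25 mg/mL with 1 µM compound and NADPH at 37 °C, pH 7.4, for 30 min, unchanged parent quantified by LC-MS/MS against the 0 min sample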
[3] = biological target: Beta Secretase enzyme (BACE) (Homo sapiens, UniProt P56817); experiment: In vitro enzymatic BACE FRET (fluorescence resonance energy transfer) assay; format: biochemical;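 also: fluorescence read after 1 h with 50 nM quenched peptide substrate spanning the BACE cleavage site, in pH 4.2 acetate buffer containing 10% DMSO and nonionic detergent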
Beta Secretase enzyme (BACE), sequence (P56817 46-501): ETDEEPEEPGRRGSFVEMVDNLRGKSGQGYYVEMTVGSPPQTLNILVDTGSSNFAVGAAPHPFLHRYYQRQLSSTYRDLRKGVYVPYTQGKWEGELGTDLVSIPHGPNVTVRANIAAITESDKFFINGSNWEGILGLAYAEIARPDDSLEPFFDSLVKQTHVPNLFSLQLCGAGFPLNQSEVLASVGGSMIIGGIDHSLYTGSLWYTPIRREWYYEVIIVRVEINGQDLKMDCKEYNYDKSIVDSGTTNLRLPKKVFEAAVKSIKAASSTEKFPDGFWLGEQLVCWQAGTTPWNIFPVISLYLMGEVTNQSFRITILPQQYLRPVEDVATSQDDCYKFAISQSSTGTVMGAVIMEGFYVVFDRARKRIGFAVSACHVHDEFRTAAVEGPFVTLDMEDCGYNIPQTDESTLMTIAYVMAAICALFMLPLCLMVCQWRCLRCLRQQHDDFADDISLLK

[4] = tested on: Aβ40 in conditioned medium of cells stably expressing Amyloid Precursor Protein (APP); experiment: In vitro BACE cell-based assay (Aβ40 in conditioned medium, sandwich ELISA); details: Homo sapiens;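 also: compounds added as a dilution series, secreted peptide quantified by europium time-resolved fluorescence readout, potency fitted from percent of control versus compound concentration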
CYP2D6 = CYP2D6 (Homo sapiens, UniProt P10635); experiment: CYP2D6 inhibition assay (bufuralol, pooled human liver microsomes)
CYP2D6, sequence (P10635 whole entry): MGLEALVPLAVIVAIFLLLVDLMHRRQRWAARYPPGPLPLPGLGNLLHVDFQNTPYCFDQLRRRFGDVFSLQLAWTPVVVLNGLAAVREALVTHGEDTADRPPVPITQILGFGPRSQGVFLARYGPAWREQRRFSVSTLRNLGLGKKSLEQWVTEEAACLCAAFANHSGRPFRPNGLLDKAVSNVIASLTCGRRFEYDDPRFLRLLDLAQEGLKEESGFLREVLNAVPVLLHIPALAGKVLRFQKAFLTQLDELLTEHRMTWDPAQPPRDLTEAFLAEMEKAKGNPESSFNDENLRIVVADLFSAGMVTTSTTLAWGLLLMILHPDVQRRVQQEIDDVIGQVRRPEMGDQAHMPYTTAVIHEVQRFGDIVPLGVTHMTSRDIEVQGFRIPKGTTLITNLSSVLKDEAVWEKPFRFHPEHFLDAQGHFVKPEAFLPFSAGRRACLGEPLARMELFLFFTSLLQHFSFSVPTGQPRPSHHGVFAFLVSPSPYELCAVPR

[5] = read-out: BACE1 FRET assay (IC50)
[6] = HEK293, HEK cells, read-out: HEK cell assay (IC50)
[7] = BACE enzyme assay, IC50's in uM, read-out: BACE1 FRET assay
[8] = HEK293, HEK cell-based assay, IC50's in uM, read-out: HEK cell assay
[9] = 2D6 IC50 (uM), CYP enzyme inhibition
[10] = BACE enzyme assay IC50, read-out: BACE1 FRET assay
[11] = HEK293, HEK cell-based assay IC50, read-out: HEK cell assay
[12] = 2D6 IC50 (uM), CYP2D6 inhibition
[13] = Table 2, read-out: BACE1 FRET assay
[14] = HEK293, Table 2, HEK cells, read-out: HEK cell assay
[15] = 2D6 IC50, CYP enzyme inhibition
[16] = BACE enzyme assay, read-out: BACE1 FRET assay
[17] = HEK293, HEK cells, read-out: HEK cell assay
[18] = HEK293, cell-based assay, HEK cells, IC50's in uM, read-out: HEK cell assay

| SMILES | RLM ([1]; rat liver microsomes) | IC50 (CYP3A4 (CYP3A)) | HLM ([2]; human liver microsomes) | RLM ([1]; rat liver microsomal data) | HLM ([2]; human liver microsomal data) | IC50 [3, 7] | IC50 (CYP2D6; [9]) | also measured |
| --- | --- | --- | --- | --- | --- | --- | --- | --- |
| CO[C@H](C)C(=O)N[C@@H](Cc1ccc(O)c(O)c1)[C@H](O)CN[C@H]1CC2(CCC2)Oc2ncc(CC(C)(C)C)cc21 [compound 651] | 147 µL/min/mg | 1600 nM | 171 µL/min/mg |  |  |  |  | IC50 [3, 5]: 0.008 µM; IC50 [4, 6]: 0.012 µM; IC50 (CYP2D6; 2D6 IC50, CYP2D6 inhibition): 10.8 µM |
| CC(=O)N[C@@H](Cc1cccc(F)c1)[C@H](O)CN[C@H]1CC2(CCC2)Oc2c(-c3ccncc3)cc(Cl)cc21 [compound 595] | 736 µL/min/mg | 100 nM | 147 µL/min/mg |  |  |  |  | IC50 [3, 5]: 0.077 µM; IC50 [4, 6]: 0.051 µM; IC50 (CYP2D6; 2D6 IC50, CYP2D6 inhibition): 0.5 µM |
| C#Cc1cnc2c(c1)[C@@H](NC[C@@H](O)[C@H](Cc1cc(F)cc(-c3nccs3)c1)NC(=O)[C@@H](C)OC)CC1(CCC1)O2 [compound 784] |  | ≤ 30 nM |  | 64 µL/min/mg | 51 µL/min/mg | 0.158 µM | 1 µM | IC50 [4, 8]: 0.864 µM |
| CO[C@H](C)C(=O)N[C@@H](Cc1ccc2c(c1)OCO2)[C@H](O)CN[C@H]1CC2(CCC2)Oc2ncc([C@H]3CC3(C)C)cc21 [compound 580] | 186 µL/min/mg | 100 nM | 42 µL/min/mg |  |  |  |  | IC50 [3, 5]: 0.357 µM; IC50 [4, 6]: 0.776 µM; IC50 (CYP2D6; 2D6 IC50, CYP2D6 inhibition): 4.4 µM |
| CO[C@H](C)C(=O)N[C@@H](Cc1cc(F)cc(F)c1)[C@H](O)CN[C@H]1CC2(CCC2)Oc2cnc(CC(C)C)cc21 [compound 688] | 399 µL/min/mg | 200 nM | 921 µL/min/mg |  |  |  |  | IC50 [3, 10]: 0.009 µM; IC50 [4, 11]: 0.036 µM; IC50 (CYP2D6; [12]): 3 µM |
| CC(=O)N[C@@H](Cc1cccc(-c2cccnc2)c1)[C@H](O)CN[C@H]1CC2(CCC2)Oc2ncc(CC(C)(C)C)cc21 [compound 623] | 601 µL/min/mg | 160 nM | 829 µL/min/mg |  |  |  |  | IC50 [3, 5]: 0.008 µM; IC50 [4, 6]: 0.006 µM; IC50 (CYP2D6; 2D6 IC50, CYP2D6 inhibition): 1.3 µM |
| COCC(=O)N[C@@H](Cc1cccc(F)c1)[C@H](O)CN[C@H]1CC2(CCC2)Oc2c1cc([C@@H](O)C(C)(C)C)cc2-n1ccnc1 [compound 593] | 29 µL/min/mg | 100 nM | 14 µL/min/mg |  |  |  |  | IC50 [3, 5]: 1.59 µM; IC50 [4, 6]: 0.312 µM; IC50 (CYP2D6; 2D6 IC50, CYP2D6 inhibition): 1 µM |
| C[C@@H](O)C(=O)N[C@@H](Cc1ccc(F)cc1)[C@H](O)CN[C@H]1CC2(CCC2)Oc2ncc(CC(C)(C)C)cc21 [compound 442] |  | 750 nM |  | 150.333 µL/min/mg | 117.333 µL/min/mg |  |  | IC50 [3, 13]: 0.013 µM; IC50 [4, 14]: 0.016 µM; IC50 (CYP2D6; [15]): 6.75 µM |
| CC(=O)N[C@@H](Cc1ccc(F)c(-c2ccncc2)c1)[C@H](O)CN[C@H]1CC2(CCC2)Oc2ncc(CC(C)(C)C)cc21 [compound 602] | 78 µL/min/mg | 160 nM | 124 µL/min/mg |  |  |  |  | IC50 [3, 5]: 0.023 µM; IC50 [4, 6]: 0.018 µM; IC50 (CYP2D6; 2D6 IC50, CYP2D6 inhibition): 0.4 µM |
| Cc1cccc(CN2CCO[C@H](C(=O)N[C@@H](Cc3ccc(F)cc3)[C@H](O)CN[C@H]3CC4(CCC4)Oc4ncc(CC(C)(C)C)cc43)C2)c1 [compound 691] | 426 µL/min/mg | 200 nM | 543 µL/min/mg |  |  |  |  | IC50 [3, 10]: 0.078 µM; IC50 [4, 11]: 0.104 µM; IC50 (CYP2D6; [12]): 3 µM |
| COCC(=O)N[C@@H](Cc1cccc(F)c1)[C@H](O)CN[C@@H]1CC2(CCC2)Oc2c1cc(CC(C)(C)C)nc2-n1ccnc1 [compound 502] |  | 100 nM |  | 158 µL/min/mg | 54 µL/min/mg |  | 0.8 µM | IC50 [3, 16]: 2 µM; IC50 [4, 17]: 1.85 µM |
| CCCc1cnc2c(c1)[C@@H](NC[C@@H](O)[C@H](Cc1cc(F)cc(-c3nccs3)c1)NC(=O)COC)CC1(CCC1)O2 [compound 865] |  | 300 nM |  | 74 µL/min/mg | 125 µL/min/mg | 0.086 µM |  | IC50 [4, 18]: 0.879 µM; IC50 (CYP2D6; [15]): 0.7 µM |
| CO[C@H](C)C(=O)N[C@@H](Cc1ccc(F)c(-c2nccs2)c1)[C@H](O)CN[C@H]1CC2(CCC2)Oc2ncc(CC(C)(C)F)cc21 [compound 760] |  | 300 nM |  | 31 µL/min/mg | 26 µL/min/mg | 0.031 µM | 0.8 µM | IC50 [4, 8]: 0.1 µM |
| COCC(=O)N[C@@H](Cc1cccc(Br)c1)[C@H](O)CN[C@H]1CC2(CCC2)Oc2ncc(CC(C)C)cc21 [compound 800] |  | 200 nM |  | 459 µL/min/mg | 921 µL/min/mg | 0.004 µM | 1.4 µM | IC50 [4, 8]: 0.013 µM |
| COCC(=O)N[C@@H](Cc1cc(F)cc(F)c1)[C@H](O)CN[C@H]1CC2(CCC2)Oc2c1cc(CC(C)(C)C)nc2Nc1cccnc1 [compound 568] |  | 200 nM |  | 304 µL/min/mg | 214 µL/min/mg |  | 9.3 µM | IC50 [3, 16]: 0.025 µM; IC50 [4, 17]: 0.019 µM |
| CC(C)(C)Cc1cnc2c(c1)[C@@H](NC[C@@H](O)[C@H](Cc1ccc(F)cc1)NC(=O)[C@H]1CCO1)CC1(CCC1)O2 [Example 440, (2R)—N-((1S,2R)-3-(((4′S)-6′-(2,2-dimethylpropyl)-3′,4′-dihydrospiro[cyclobutane-1,2′-pyrano[2,3-b]pyridin]-4′-yl)amino)-1-((4-fluorophenyl)methyl)-2-hydroxypropyl)-2-oxetanecarboxamide] |  | 700 nM |  | 242 µL/min/mg | 209 µL/min/mg |  | 8.2 µM | IC50 [3, 16]: 0.016 µM; IC50 [4, 17]: 0.035 µM |
| CCOCC(=O)N[C@@H](Cc1cc(F)cc(-c2nccs2)c1)[C@H](O)CN[C@H]1CC2(CCC2)Oc2ncc(CC(C)(C)C)cc21 [compound 862, N-((1S,2R)-3-(((4′S)-6′-(2,2-dimethylpropyl)-3′,4′-dihydrospiro[cyclobutane-1,2′-pyrano[2,3-b]pyridin]-4′-yl)amino)-1-(3-fluoro-5-(1,3-thiazol-2-yl)benzyl)-2-hydroxypropyl)-2-ethoxyacetamide] |  | 300 nM |  | 64 µL/min/mg | 43 µL/min/mg | 0.004 µM |  | IC50 [4, 18]: 0.009 µM; IC50 (CYP2D6; [15]): 0.65 µM |
| COCC(=O)N[C@@H](Cc1cccc(-c2nccs2)c1)[C@H](O)CN[C@H]1CC2(CCC2)Oc2ncc(CC(C)(C)F)cc21 [compound 813, N-((1S,2R)-3-(((4′S)-6′-(2-fluoro-2-methylpropyl)-3′,4′-dihydrospiro[cyclobutane-1,2′-pyrano[2,3-b]pyridin]-4′-yl)amino)-2-hydroxy-1-(3-(1,3-thiazol-2-yl)benzyl)propyl)-2-methoxyacetamide] |  | 500 nM |  | 27 µL/min/mg | 32 µL/min/mg | 0.006 µM | 1.1 µM | IC50 [4, 8]: 0.014 µM |
| CC(C)(C)Cc1cnc2c(c1)[C@@H](NC[C@@H](O)[C@H](Cc1ccc(F)cc1)NC(=O)[C@@H]1CN(Cc3cscn3)CCO1)CC1(CCC1)O2 [compound 786] |  | 300 nM |  | 129 µL/min/mg | 169 µL/min/mg | 0.047 µM | 7.9 µM | IC50 [4, 8]: 0.029 µM |
| COCC(=O)N[C@@H](Cc1ccc2c(c1)OCO2)[C@H](O)CN[C@H]1CC2(CCC2)Oc2c1cc(CC(C)C)nc2-c1ccncc1 [compound 669] | 77 µL/min/mg | ≤ 30 nM | 45 µL/min/mg |  |  |  |  | IC50 [3, 10]: 0.034 µM; IC50 [4, 11]: 0.087 µM; IC50 (CYP2D6; [12]): 0.3 µM |
| COCC(=O)N[C@@H](Cc1ccc2c(c1)OCO2)[C@H]1CN([C@H]2CC3(CCC3)Oc3ncc([C@H](F)C(C)(C)C)cc32)C(=O)O1 [compound 446] |  | 200 nM |  | 106 µL/min/mg | 150 µL/min/mg |  |  | IC50 [3, 13]: 6.32 µM; IC50 [4, 14]: > 10 µM; IC50 (CYP2D6; [15]): 1.2 µM |
| CC(=O)C(C)(C)C(=O)N[C@@H](Cc1cccc(F)c1)[C@H](O)CN[C@H]1CC2(CCC2)Oc2ncc(CC(C)(C)C)cc21 [compound 467] |  | 400 nM |  | 292 µL/min/mg | 399 µL/min/mg |  |  | IC50 [3, 13]: 0.063 µM; IC50 [4, 14]: 0.209 µM; IC50 (CYP2D6; [15]): 7.3 µM |
| CC(=O)C(C)(C)C(=O)N[C@@H](Cc1ccc2c(c1)OCO2)[C@H](O)CN[C@H]1CC2(CCC2)Oc2ncc(CC(C)(C)C)cc21 [compound 457] |  | 100 nM |  | 90 µL/min/mg | 44 µL/min/mg |  |  | IC50 [3, 13]: 0.792 µM; IC50 [4, 14]: 0.905 µM; IC50 (CYP2D6; [15]): 2.4 µM |
| CO[C@H](C)C(=O)N[C@@H](Cc1cccc(-c2nccs2)c1)[C@H](O)CN[C@H]1CC2(CCC2)Oc2ncc(CC(C)C)cc21 [Example 776, (2R)-N-((1S,2R)-2-hydroxy-3-(((4′S)-6′-(2-methylpropyl)-3′,4′-dihydrospiro[cyclobutane-1,2′-pyrano[2,3-b]pyridin]-4′-yl)amino)-1-(3-(1,3-thiazol-2-yl)benzyl)propyl)-2-methoxypropanamide] |  | 200 nM |  | 61 µL/min/mg | 58 µL/min/mg | 0.014 µM | 0.7 µM | IC50 [4, 8]: 0.027 µM |
